In patent US9624214B2, “Amino-substituted imidazo[1,2-a]pyridinecarboxamides and their use” (BAYER PHARMA AKTIENGESELLSCHAFT, priority 2012, dated 2017):

Each compound was assayed against T1, recombinant guanylate cyclase reporter cell line (Rattus norvegicus, UniProt P19686+P20595) (assay: B-2. Action on recombinant guanylate cyclase reporter cell line). Conditions: MEC = minimal effective concentration; in some cases mean values from individual determinations.
T1 construct: expressed in transfected cells
T1 sequence (P20595 1-619): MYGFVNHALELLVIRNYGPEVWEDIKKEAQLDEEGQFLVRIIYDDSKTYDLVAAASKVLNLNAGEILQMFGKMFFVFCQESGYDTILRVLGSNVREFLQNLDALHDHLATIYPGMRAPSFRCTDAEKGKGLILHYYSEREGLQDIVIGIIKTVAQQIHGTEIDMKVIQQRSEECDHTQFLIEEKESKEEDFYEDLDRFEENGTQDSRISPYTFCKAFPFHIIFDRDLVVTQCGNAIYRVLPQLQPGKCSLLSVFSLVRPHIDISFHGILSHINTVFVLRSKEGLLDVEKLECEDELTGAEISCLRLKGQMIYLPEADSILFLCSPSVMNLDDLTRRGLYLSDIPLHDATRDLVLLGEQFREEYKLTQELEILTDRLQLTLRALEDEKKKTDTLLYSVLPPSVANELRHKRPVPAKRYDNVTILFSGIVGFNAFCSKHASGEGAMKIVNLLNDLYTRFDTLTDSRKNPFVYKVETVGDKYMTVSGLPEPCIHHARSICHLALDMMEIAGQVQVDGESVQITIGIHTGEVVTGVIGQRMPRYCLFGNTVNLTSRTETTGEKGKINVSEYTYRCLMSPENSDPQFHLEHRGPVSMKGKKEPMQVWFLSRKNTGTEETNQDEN
T1 sequence (P19686 1-690): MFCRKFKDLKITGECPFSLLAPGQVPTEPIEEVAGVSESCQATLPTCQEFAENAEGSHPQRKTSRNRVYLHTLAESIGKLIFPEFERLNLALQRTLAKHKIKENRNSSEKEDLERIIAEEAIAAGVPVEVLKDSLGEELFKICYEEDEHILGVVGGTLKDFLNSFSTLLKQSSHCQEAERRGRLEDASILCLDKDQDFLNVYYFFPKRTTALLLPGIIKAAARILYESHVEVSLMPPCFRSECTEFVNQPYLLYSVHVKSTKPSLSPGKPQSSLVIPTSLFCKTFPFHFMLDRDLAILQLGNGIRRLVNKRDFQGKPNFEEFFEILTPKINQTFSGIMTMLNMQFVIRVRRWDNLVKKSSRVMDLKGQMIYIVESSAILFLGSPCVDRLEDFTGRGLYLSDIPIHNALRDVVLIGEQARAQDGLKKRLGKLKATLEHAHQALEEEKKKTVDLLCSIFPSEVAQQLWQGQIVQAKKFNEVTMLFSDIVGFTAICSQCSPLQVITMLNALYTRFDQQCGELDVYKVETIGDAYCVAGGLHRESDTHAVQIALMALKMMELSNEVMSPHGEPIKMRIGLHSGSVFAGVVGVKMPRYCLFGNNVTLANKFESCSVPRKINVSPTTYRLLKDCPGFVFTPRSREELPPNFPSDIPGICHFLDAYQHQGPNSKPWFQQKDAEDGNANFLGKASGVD
Assay type: cell-based
Procedure, shortened: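 Cellular activity was measured in a reporter cell line expressing recombinant guanylate cyclase. Values are given as MEC, the minimal effective concentration, and some are means of individual determinations.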

Row | SMILES | MEC [µM]
1 | CCCC(C)(N)CNC(=O)c1c(CC)nc2c(OCc3c(F)cccc3F)cc(C)cn12 (racemic) [Example 301, rac-N-(2-amino-2-methylpentyl)-8-[(2,6-difluorobenzyl)oxy]-2-ethyl-6-methylimidazo[1,2-a]pyridine-3-carboxamide] | 0.10
2 | Cc1cc(OCc2c(F)cccc2F)c2nc(C)c(C(=O)NC3CCNC(C(F)(F)F)C3)n2c1 (racemic) [Example 302, rac-8-[(2,6-difluorobenzyl)oxy]-2,6-dimethyl-N-[2-(trifluoromethyl)piperidin-4-yl]imidazo[1,2-a]pyridine-3-carboxamide] | 0.10
3 | CCCC(C)(N)CNC(=O)c1c(C)nc2c(OCc3cccc(F)c3F)cc(C)cn12 (racemic) [Example 303, rac-N-(2-amino-2-methylpentyl)-8-[(2,3-difluorobenzyl)oxy]-2,6-dimethylimidazo[1,2-a]pyridine-3-carboxamide] | 0.20
4 | Cc1cc(OCc2c(F)cccc2F)c2nc(C)c(C(=O)NCC(C)(N)Cc3nc4ccccc4s3)n2c1 (racemic) [Example 310, rac-N-[2-amino-3-(1,3-benzothiazol-2-yl)-2-methylpropyl]-8-[(2,6-difluorobenzyl)oxy]-2,6-dimethylimidazo[1,2-a]pyridine-3-carboxamide] | 0.30
5 | CCCC(C)(N)CNC(=O)c1c(C)nc2c(OCc3c(F)c(F)cc(F)c3F)cc(C)cn12 (racemic) [Example 311, rac-N-(2-amino-2-methylpentyl)-2,6-dimethyl-8-[(2,3,5,6-tetrafluorobenzyl)oxy]imidazo[1,2-a]pyridine-3-carboxamide] | 0.30
6 | Cc1cc(OCc2c(F)cccc2F)c2nc(C)c(C(=O)NC3CNCC(F)(F)C3)n2c1 (racemic) [Example 312, rac-8-[(2,6-difluorobenzyl)oxy]-N-(5,5-difluoropiperidin-3-yl)-2,6-dimethylimidazo[1,2-a]pyridine-3-carboxamide] | 0.30
7 | Cc1cc(OCc2c(F)cccc2F)c2nc(C)c(C(=O)NC3CCCCNC3)n2c1 (racemic) [Example 316, rac-N-(azepan-3-yl)-8-[(2,6-difluorobenzyl)oxy]-2,6-dimethylimidazo[1,2-a]pyridine-3-carboxamide] | 0.30
8 | CCCC(C)(N)CNC(=O)c1c(C)nc2c(OCc3cccc(C)c3F)cc(C)cn12 (racemic) [Example 317, rac-N-(2-amino-2-methylpentyl)-8-[(2-fluoro-3-methylbenzyl)oxy]-2,6-dimethylimidazo[1,2-a]pyridine-3-carboxamide] | 0.30
9 | Cc1cc(OCc2c(F)cccc2F)c2nc(C)c(C(=O)NC3(C)CC3(C)N)n2c1 (racemic) [Example 320, rac-N-(2-amino-1,2-dimethylcyclopropyl)-8-[(2,6-difluorobenzyl)oxy]-2,6-dimethylimidazo[1,2-a]pyridine-3-carboxamide (Racemate)] | 0.30
10 | Cc1cc(OCc2c(F)cccc2F)c2nc(C)c(C(=O)NCC(C)(N)Cc3ncn(-c4cc(C)on4)n3)n2c1 (racemic) [Example 321, rac-N-{2-amino-2-methyl-3-[1-(5-methyl-1,2-oxazol-3-yl)-1H-1,2,4-triazol-3-yl]propyl}-8-[(2,6-difluorobenzyl)oxy]-2,6-dimethylimidazo[1,2-a]pyridine-3-carboxamide] | 0.30
11 | Cc1cc(OCc2c(F)cccc2F)c2nc(C)c(C(=O)NC3CC3N)n2c1 (racemic) [Example 330, rac-N-(2-aminocyclopropyl)-8-[(2,6-difluorobenzyl)oxy]-2,6-dimethylimidazo[1,2-a]pyridine-3-carboxamide] | 0.30
12 | Cc1cc(OCc2c(F)cccc2F)c2nc(C)c(C(=O)NC3CCC3(C)N)n2c1 (racemic) [Example 331, rac-N-(2-amino-2-methylcyclobutyl)-8-[(2,6-difluorobenzyl)oxy]-2,6-dimethylimidazo[1,2-a]pyridine-3-carboxamide] | 0.30
13 | Cc1cc(OCc2c(F)cccc2F)c2nc(C)c(C(=O)NC3(C)CCC3(C)N)n2c1 (racemic) [Example 335, rac-N-[2-amino-1,2-dimethylcyclobutyl]-8-[(2,6-difluorobenzyl)oxy]-2,6-dimethylimidazo[1,2-a]pyridine-3-carboxamide] | 0.30
14 | CCCC(C)(N)CNC(=O)c1c(C)nc2c(OCc3ccccc3)cc(C)cn12 (racemic) [Example 340, rac-N-(2-amino-2-methylpentyl)-8-(benzyloxy)-2,6-dimethylimidazo[1,2-a]pyridine-3-carboxamide] | 1.00
15 | Cc1cc(OCc2c(F)cccc2F)c2nc(C)c(C(=O)NC3C(N)C3(C)C)n2c1 (racemic) [Example 341, rac-N-(3-amino-2,2-dimethylcyclopropyl)-8-[(2,6-difluorobenzyl)oxy]-2,6-dimethylimidazo[1,2-a]pyridine-3-carboxamide (Racemate)] | 0.30
16 | Cc1cc(OCc2c(F)cccc2F)c2nc(C)c(C(=O)NC3CCC4NCCC43)n2c1 (racemic) [Example 342, rac-8-[(2,6-Difluorobenzyl)oxy]-2,6-dimethyl-N-(octahydrocyclopenta[b]pyrrol-4-yl)imidazo[1,2-a]pyridine-3-carboxamide] | 1.00
17 | CCCC(C)(N)CNC(=O)c1c(C)nc2c(OCc3ccccc3Cl)cc(C)cn12 (racemic) [Example 343, rac-N-(2-amino-2-methylpentyl)-8-[(2-chlorobenzyl)oxy]-2,6-dimethylimidazo[1,2-a]pyridine-3-carboxamide] | 1.00
18 | Cc1cc(OCc2c(F)cccc2F)c2nc(C)c(C(=O)NCC3CN(Cc4ccccc4)CCO3)n2c1 (racemic) [Example 344, rac-N-[(4-benzylmorpholin-2-yl)methyl]-8-[(2,6-difluorobenzyl)oxy]-2,6-dimethylimidazo[1,2-a]pyridine-3-carboxamide] | 1.00
19 | Cc1cc(OCc2c(F)cccc2F)c2nc(C)c(C(=O)NCC3CNCCO3)n2c1 (racemic) [Example 345, rac-8-[(2,6-Difluorobenzyl)oxy]-2,6-dimethyl-N-(morpholin-2-ylmethyl)imidazo[1,2-a]pyridine-3-carboxamide] | 1.00
20 | Cc1cc(OCc2c(F)cccc2F)c2nc(C)c(C(=O)NC34CCC3CNC4)n2c1 (racemic) [Example 346, rac-N-(3-azabicyclo[3.2.0]hept-1-yl)-8-[(2,6-difluorobenzyl)oxy]-2,6-dimethylimidazo[1,2-a]pyridine-3-carboxamide] | 1.00
21 | Cc1cc(OCc2c(F)cccc2F)c2nc(C)c(C(=O)NC3CNCC3F)n2c1 (racemic) [Example 347, rac-8-[(2,6-Difluorobenzyl)oxy]-N-(4-fluoropyrrolidin-3-yl)-2,6-dimethylimidazo[1,2-a]pyridine-3-carboxamide] | 1.00
22 | CCCC(C)(N)CNC(=O)c1c(C)nc2c(OCc3cccc(F)c3)cc(C)cn12 (racemic) [Example 348, rac-N-(2-amino-2-methylpentyl)-8-[(3-fluorobenzyl)oxy]-2,6-dimethylimidazo[1,2-a]pyridine-3-carboxamide] | 1.00
23 | Cc1cc(OCc2c(F)cccc2F)c2nc(C)c(C(=O)NCC(C)(N)COc3ccc(F)c(F)c3)n2c1 (racemic) [Example 350, rac-N-[2-amino-3-(3,4-difluorophenoxy)-2-methylpropyl]-8-[(2,6-difluorobenzyl)oxy]-2,6-dimethylimidazo[1,2-a]pyridine-3-carboxamide] | 1.00
24 | CCCC(C)(N)CNC(=O)c1c(C)nc2c(OCc3c(F)cccc3OC)cc(C)cn12 (racemic) [Example 351, rac-N-(2-amino-2-methylpentyl)-8-[(2-fluoro-6-methoxybenzyl)oxy]-2,6-dimethylimidazo[1,2-a]pyridine-3-carboxamide] | 3.00
25 | Cc1cc(OCc2c(F)cccc2F)c2nc(C)c(C(=O)NCC3CSCCN3)n2c1 (racemic) [Example 366, rac-8-[(2,6-difluorobenzyl)oxy]-2,6-dimethyl-N-(thiomorpholin-3-ylmethyl)imidazo[1,2-a]pyridine-3-carboxamide] | 0.10
